Source: PMC8279416, “Structural Fine-Tuning of Desmuramylpeptide NOD2 Agonists Defines Their In Vivo Adjuvant Activity” (Journal of Medicinal Chemistry, 2021)
Several values for one entry are separate records, joined by “and”; a condition that tells them apart may be missing. Equal values may be shown once.

Columns and labels:
[1] = system: NIH/OlaHsd mice; test: In vivo ovalbumin-specific antibody response, first experiment (neutral liposomes); set-up: species or system mouse; conditions: for Log10 (anti-OVA IgG1/anti-OVA IgG2a): first in vivo experiment, one week after the booster dose, mean ± SEM of 5 mice; for Ovalbumin-specific IgG1 response (in words) / Adjuvant activity: ovalbumin-specific IgG (in words) / Ovalbumin-specific IgG2a response (in words): neutral liposomes, 0.30 μmol adjuvant per dose, 1 week after booster; for Adjuvant activity: ovalbumin-specific IgG (in words): s.c.
Description: To determine whether enhanced antigen presentation in vitro is correlated to in vivo adjuvant activities, an immunization study was performed in a murine model of adjuvanticity. Specifically, the selected desmuramylpeptides were investigated for induction of systemic immune responses against the model antigen ovalbumin. Seven groups of NIH/OlaHsd mice were immunized with ovalbumin-containing neutral liposomes, either alone or with additional adjuvants of MDP or the desmuramylpeptides 1, 68, 74, 75, or 81. After immunization and one booster dose, the mice sera were collected and assayed for ovalbumin-specific IgG antibodies (Figure 10).
(§1) Multilamellar liposomes were prepared by the modified thin lipid film method as described previously.[130],[131] For the preparation of neutral liposomes, a 7:5 molar ratio of egg-phosphatidylcholine and cholesterol was used. For the preparation of negatively charged liposomes, a 7:5:1 molar ratio of egg-phosphatidylcholine, cholesterol, and dicetylphosphate was used, while a 7:5:0.5 molar ratio of egg-phosphatidylcholine, cholesterol, and Man-PEG-Pam was used in the preparation of mannosylated liposomes. Lipids (total lipid concentration, 4 mg/mL) were dissolved in chloroform/methanol (2:1). A methanol or chloroform/methanol solution of MDP or the desmuramylpeptides was added to the lipid solution for a final concentration of 2 mM and 1.5 mM for the first (Figure 10) and second (Figure 11) experiments, respectively. After rotary evaporation of the solvent, the remaining lipid film was dried in vacuum for 1 h and then dispersed by gentle handshaking in an ovalbumin solution in saline (0.0667 and 0.1 mg/mL for the first and second experiments, respectively). This was then left overnight at 4 °C to swell and stabilize. Liposome size was reduced by sonification. Nonentrapped material was not separated from liposomes, and the complete liposome suspension was used for immunizations.
(§2) For the first experiment (Figure 10), sex-matched NIH/OlaHsd mice (five per group) were immunized subcutaneously in the tail base and boosted one time after 21 days. The injection volume in all experimental groups was 0.15 mL per mouse, which corresponds to 10 μg of OVA, […], and 0.30 μmol of MDP and desmuramylpeptides. For the second experiment (Figure 11), sex-matched NIH/OlaHsd mice (five per group) were immunized and boosted two times subcutaneously into the tail base at 21-day intervals. The injection volume in all experimental groups was 0.1 mL per mouse, which corresponds to 10 μg of OVA, 400 μg of lipids, and 0.15 μmol of MDP and 75. The mice were anesthetized with ip application of ketamine/xylazine (25 mg/kg each) prior to blood collection from the axillary plexus on the seventh day after the last booster dose. Individual serum from each animal was decomplemented at 56 °C for 30 min and then stored at −20 °C until tested.
(§3) ELISA assays were performed as detailed previously.[46] Briefly, high-binding ELISA plates (Costar, U.S.A.) were coated with a 15 μg/mL solution of ovalbumin in carbonate buffer, pH 9.6, and incubated overnight at room temperature. Nonspecific antibody binding was blocked with 0.5% w/v bovine serum albumin in PBS-T (0.05% (v/v) Tween 20 in phosphate-buffered saline) for 2 h at 37 °C. After washing, five serial dilutions of mice sera and standard preparations were added in duplicate. Plates were incubated overnight at room temperature, washed, and analyzed for ovalbumin-specific IgG levels by incubation with HRP-conjugated goat anti-mouse IgG (2 h at 37 °C) and then, after washing, with 0.6 mg/mL o-phenylenediaminedihydrochloride solution in citrate-phosphate buffer, pH 5.0, with 0.5 μL of 30% H2O2 per milliliter for 30 min at room temperature in the dark. The enzymatic reaction was stopped with 12.5% H2SO4, and absorbance at 492 nm was measured using a microplate reader (Thermo Fisher Scientific, Waltham, MA, U.S.A.). […]

[2] = set-up: method as in PMID 29543461; conditions: earlier work of the group; cited from earlier work
[3] = molecular target: T1, NOD2 (Homo sapiens, UniProt Q9HC29); test: HEK-Blue NOD2 cell line reporter assay (NF-κB-inducible SEAP); assay type: cell-based; conditions: HEK-Blue NOD2 cells, 18 h, mean ± SEM; for NOD2 activity at 2 μM (fold increase): NF-κB transcriptional (SEAP) activity relative to 0.1% DMSO; for EC50: 7 or 8 concentrations 1 nM to 20 μM
T1 construct: host or cells: HEK-Blue NOD2 cells (HEK293-derived)
Description: To determine the NOD2 agonistic potential of the synthesized desmuramylpeptides at the cellular level, we used the validated and commercially available HEK-Blue NOD2 cell line reporter assay. HEK-Blue NOD2 cells were first treated for 18 h with MDP, 1, or the novel desmuramylpeptides at 2 μM. The NF-κB transcriptional activity measured was normalized to that of the vehicle treated (0.1% DMSO) control HEK-Blue NOD2 cells.
HEK-Blue NOD2 and NOD1 cell line reporter assays are derived from HEK293 cells by cotransfection of the hNOD2 or hNOD1 genes, respectively, and an NF-κB-inducible secreted embryonic alkaline phosphatase (SEAP) reporter gene. Following activation of NOD2 or NOD1, the resulting NF-κB induces production of SEAP, the levels of which can be quantified colorimetrically. […] After 18 h of incubation (37 °C, 5% CO2), secreted embryonic alkaline phosphatase (SEAP) activity was determined spectrophotometrically as absorbance at 630 nm (BioTek Synergy microplate reader; Winooski, VT, U.S.A.). EC50 values were calculated using Prism software (version 9; GraphPad Software, CA, U.S.A.). For determination of specificity, HEK-Blue NOD2 cells (2.5 × 10^5 cells/mL) were first pretreated for 1 h with a 10 μM NOD2 antagonist, before the addition of the compounds (2 μM), with incubation for 18 h. SEAP activity in the supernatants was determined as above. The experiments were run in duplicate and repeated as at least two independent biological replicates.

[4] = system: human PBMCs; test: Cytokine release from peripheral blood mononuclear cells (cytometric bead array); assay type: cell-based; conditions: 2 μM, 18 h, without LPS
Description: The immunostimulatory effects of the selected desmuramylpeptides were evaluated using human primary peripheral blood mononuclear cells (PBMCs). This heterogeneous mixture of immune cells allowed the study of the effects of these NOD2 agonists in a physiologically relevant system, where other NOD2-interacting and downstream signaling proteins were present. The effects of desmuramylpeptides were first determined for the secreted cytokine profile using a cytometric bead array cytokine kit. Moreover, considering that activation of NOD2 is also an important amplification signal for Toll-like receptor (TLR)-induced inflammatory responses,[79]−[81] we also examined the effects on cytokine secretion of the combination of desmuramylpeptides with LPS, a well-known TLR4 agonist.
In line with previous studies, the effects of MDP and the desmuramylpeptides were most pronounced for the induction of the chemokine IL-8.[82]
Peripheral blood mononuclear cells were seeded (1 × 10^6 cells/mL) in 48-well plates in 500 μL of growth medium and treated with the compounds (2 μM) or with the corresponding vehicle (0.1% DMSO) in the absence and presence of LPS (10 ng/mL). Cell-free supernatants were collected after 18 h of incubation (37 °C, 5% CO2) and stored at −80 °C until tested. Cytokine production was determined with the BD Cytometric Bead Array Human Inflammatory Cytokines Kit (contents: IL-8, IL-1β, IL-6, IL-10, TNF, IL-12p70; BD Bioscience) on an Attune NxT flow cytometer (Thermo Fisher Scientific, Waltham, MA, U.S.A.). Standard curves were generated using recombinant cytokines contained in the kit. The data were analyzed using the FlowJo (Tree Star, Inc., Ashland, OR, U.S.A.) and Prism (GraphPad, San Diego, CA, U.S.A.) software. The experiments were repeated as four independent biological replicates. Statistical significance was determined by repeated measures one-way ANOVA followed with Dunnett’s multiple comparisons test.

[5] = system: NIH/OlaHsd mice; test: In vivo ovalbumin-specific antibody response, second experiment (neutral, anionic, mannosylated liposomes); set-up: species or system mouse; conditions: for Ovalbumin-specific IgG response (in words): 0.15 μmol adjuvant per dose; for Log10 (anti-OVA IgG1/anti-OVA IgG2a): second in vivo experiment, 0.15 μmol adjuvant, one week after second booster, mean ± SEM of 5 mice
Description: To determine whether the adjuvanticity of 75 can be modulated through changes to the liposomal formulation, a second in vivo experiment was designed in which the adjuvant activities of three different liposomal compositions were compared. Neutral liposomes were prepared from egg phosphatidylcholine and cholesterol.
as §1, §2
as §3, with “U.S.A.). For the determination of ovalbumin-specific IgG1 and IgG2a, the plates were incubated with biotin-conjugated rat anti-mouse IgG1 or IgG2a (2 h at 37 °C) and subsequently with streptavidin–peroxidase for another 2 h at 37 °C. After washing, the substrate solution was added and incubated for 30 min at room temperature in the dark, as described above.” for “U.S.A.).”

T1 sequence (Q9HC29 whole entry): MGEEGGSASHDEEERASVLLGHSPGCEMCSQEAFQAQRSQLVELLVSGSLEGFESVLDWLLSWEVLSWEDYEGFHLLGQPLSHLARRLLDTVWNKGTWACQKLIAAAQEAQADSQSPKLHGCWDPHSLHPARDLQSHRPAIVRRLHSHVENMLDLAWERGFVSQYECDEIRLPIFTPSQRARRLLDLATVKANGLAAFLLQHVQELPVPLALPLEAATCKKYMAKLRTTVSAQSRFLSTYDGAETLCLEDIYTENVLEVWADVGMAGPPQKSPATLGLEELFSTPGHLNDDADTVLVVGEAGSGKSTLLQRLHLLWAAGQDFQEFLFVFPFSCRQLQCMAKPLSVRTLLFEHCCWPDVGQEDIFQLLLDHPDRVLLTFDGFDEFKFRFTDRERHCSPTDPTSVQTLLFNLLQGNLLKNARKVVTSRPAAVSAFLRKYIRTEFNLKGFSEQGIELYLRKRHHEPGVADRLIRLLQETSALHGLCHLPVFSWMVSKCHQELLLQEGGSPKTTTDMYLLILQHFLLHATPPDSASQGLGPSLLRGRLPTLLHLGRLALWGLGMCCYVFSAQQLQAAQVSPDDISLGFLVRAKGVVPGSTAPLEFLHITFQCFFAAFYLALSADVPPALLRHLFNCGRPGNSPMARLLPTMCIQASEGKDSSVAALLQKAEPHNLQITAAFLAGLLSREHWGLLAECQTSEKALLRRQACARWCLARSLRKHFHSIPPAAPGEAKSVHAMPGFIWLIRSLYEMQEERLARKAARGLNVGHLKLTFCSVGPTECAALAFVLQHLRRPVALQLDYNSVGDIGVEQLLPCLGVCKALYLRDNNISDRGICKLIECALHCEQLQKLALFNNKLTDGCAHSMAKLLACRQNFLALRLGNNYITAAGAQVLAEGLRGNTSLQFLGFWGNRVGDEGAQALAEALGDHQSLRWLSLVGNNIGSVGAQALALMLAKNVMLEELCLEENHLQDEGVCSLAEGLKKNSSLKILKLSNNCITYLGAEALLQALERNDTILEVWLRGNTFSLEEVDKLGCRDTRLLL

In the case of CCOC(=O)CC[C@@H](NC(=O)[C@@H](NC(=O)CNC(=O)/C=C/c1ccc(O)c(OC)c1)C(C)C)C(=O)OCC [Compound 1], the “Log10 (anti-OVA IgG1/anti-OVA IgG2a)” value [1] is reported as 1.68 ± 0.06, the “Ovalbumin-specific IgG1 response (in words)” value [1] is reported as “largely IgG1-based response” and the “Adjuvant activity: ovalbumin-specific IgG (in words)” value [1] is reported as “only marginal adjuvant activity”. The Pyrogenicity [2] was “devoid of pyrogenicity”.

With CCOC(=O)CC[C@@H](NC(=O)[C@@H](NC(=O)CNC(=O)/C=C/c1ccc(OC(C)=O)c(OC)c1)C(C)C)C(=O)OCC [Compound 73, Diethyl ((E)-3-(4-Acetoxy-3-methoxyphenyl)acryloyl)glycyl-L-valyl-D-glutamate] the “NOD2 activity at 2 μM (fold increase)” value [3] was 3.05 ± 0.03 fold increase, the EC50 [3] was 62 ± 27 nM and the “Induction of cytokines IL-1β, IL-6, IL-8 and TNF-α, compound alone” value [4] was “induced small increases in the levels of all four of these cytokines”.

With CCCCCCCCCCCC(=O)Oc1ccc(/C=C/C(=O)NCC(=O)N[C@H](C(=O)N[C@H](CCC(=O)OCC)C(=O)OCC)C(C)C)cc1OC [Compound 74, Diethyl ((E)-3-(4-(Dodecanoyloxy)-3-methoxyphenyl)acryloyl)glycyl-L-valyl-D-glutamate] the “NOD2 activity at 2 μM (fold increase)” value [3] was 3.17 ± 0.03 fold increase, the EC50 [3] was 30 ± 5 nM and the “Log10 (anti-OVA IgG1/anti-OVA IgG2a)” value [1] was 2.90 ± 0.39. For the same compound, the “Ovalbumin-specific IgG2a response (in words)” value [1] was “slight suppression of the IgG2a response” and the “Induction of cytokines IL-1β, IL-6, IL-8 and TNF-α, compound alone” value [4] was “induced small increases in the levels of all four of these cytokines”.

With CC(=O)N[C@H]1C(O)O[C@H](CO)[C@@H](O)[C@@H]1O[C@H](C)C(=O)N[C@@H](C)C(=O)N[C@H](CCC(=O)O)C(N)=O (stereo partly shown) [MDP, muramyl dipeptide, reference compound] the “NOD2 activity at 2 μM (fold increase)” value [3] was 2.83 fold increase and 2.83 ± 0.16 fold increase, the EC50 [3] was 148 ± 26 nM and the “Ovalbumin-specific IgG2a response (in words)” value ([5]; all liposomal compositions, compared to liposomes without adjuvant) was “remained unchanged”. The “Ovalbumin-specific IgG response (in words)” value ([5]; mannosylated liposomes) was “strongest immunogenicity”, the “Ovalbumin-specific IgG response (in words)” value ([5]; negatively charged liposomes) was “stronger IgG response” and the “Ovalbumin-specific IgG response (in words)” value ([5]; neutral liposomes) was “weakest adjuvant activities”. The “Log10 (anti-OVA IgG1/anti-OVA IgG2a)” value ([5]; anionic liposomes) was 2.85 ± 0.10, the “Log10 (anti-OVA IgG1/anti-OVA IgG2a)” value ([5]; mannosylated liposomes) was 2.48 ± 0.19 and the “Log10 (anti-OVA IgG1/anti-OVA IgG2a)” value ([5]; neutral liposomes) was 3.02 ± 0.17. For the same compound, the “Log10 (anti-OVA IgG1/anti-OVA IgG2a)” value [1] was 2.43 ± 0.25, the “Ovalbumin-specific IgG1 response (in words)” value [1] was “significant increases in IgG1 generation” and the “Ovalbumin-specific IgG2a response (in words)” value [1] was “only marginal increases in IgG2a”. For the same compound, the “Adjuvant activity: ovalbumin-specific IgG (in words)” value [1] was “moderately enhanced”.
